The record followed here is PubChem BioAssay (NCI).

Each structure is given as a SMILES string.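 Cultured in 96-well plates, cells were exposed to test compound for 48 hours across five concentrations. GI50 marks 50% less growth. Definition used: TGI = concentration required for complete inhibition of growth.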

What all share (assay): NCI tumour cell line growth inhibition, 48 h
Experiment [1] has as its system UO-31 renal.
Experiment [2] deals with HOP-62 NSCLC.
Experiment [3] concerns CCRF-CEM leukemia.
Experiment [4] concerns COLO 205 colon.
Experiment [5] deals with HL-60(TB) leukemia.
Experiment [6] deals with SK-OV-3 ovarian.
The subject of experiment [7] is LOX IMVI melanoma.
The subject of experiment [8] is OVCAR-8 ovarian.
For experiment [9], the system named is MALME-3M melanoma.
The subject of experiment [10] is EKVX NSCLC.

`COc1ccc(/C=C2\SC(=Nc3ccccc3)NC2=O)cc1`: the GI50 was 6.97 µM in [1]; 7.06 µM in experiment [2]; 5.4 µM in experiment [3]; 4.68 µM in [4]; 3.53 µM in [5]; 12.6 µM in experiment [6]. Also, the GI50 was 5.5 µM in [7], 6.62 µM in [8] and 19 µM in experiment [9]. Further, the TGI in experiment [1] was more than 100 µM; in experiment [2], 26.1 µM; in experiment [3], more than 100 µM; in [4], 27.9 µM; in experiment [5], more than 100 µM; in [6] it was 46.8 µM. Besides, the TGI in experiment [7] is 19.6 µM; in [8], 31.7 µM; in experiment [9], 99.8 µM.
Take `COc1ccc2c(c1)NC1(O)c3ccccc3C(=O)C21O` (stereo unspecified): the TGI in experiment [1], in [2], in experiment [3], in [4], in experiment [5] and in experiment [6] was more than 100 µM throughout. The TGI in [7], in experiment [8] and in [9] was more than 100 µM each time.
With `O=C(Nc1ccc(F)cc1)Nc1ccc(Br)c(C(F)(F)F)c1`, the GI50 was 2.35 µM in [1]; 2.27 µM in experiment [3]; 1.72 µM in experiment [4]; 1.87 µM in [5]; 2.16 µM in [6]; 2.51 µM in [7]. In addition, the figures for the GI50 in experiment [8], in experiment [9] and in experiment [10] were 2.95 µM, 2.12 µM and 2.4 µM, respectively. The TGI was 10.6 µM in [1]; 6.53 µM in [3]; 3.27 µM in [4]; 5.19 µM in experiment [5]; 6.27 µM in experiment [6]; 7.39 µM in experiment [7]. The TGI is 15.2 µM in experiment [8], 5.8 µM in experiment [9] and 10.6 µM in experiment [10].
`COc1cc(NS(C)(=O)=O)ccc1NCc1c2ccccc2nc2ccccc12`: the TGI was more than 100 µM in [1]; 33.5 µM in experiment [3]; more than 100 µM in experiment [4]; 47.4 µM in [5]; more than 100 µM in [6]; 91.1 µM in experiment [7]. The TGI was 99.1 µM in experiment [8], more than 100 µM in experiment [9] and more than 100 µM in experiment [10].
Regarding `COc1ccc2oc(-c3ccc(OC)c(OC)c3OC)cc(=O)c2c1`, the TGI was more than 100 µM in experiment [2]; more than 100 µM in experiment [3]; more than 100 µM in [4]; 55 µM in experiment [5]; more than 100 µM in experiment [6]; more than 100 µM in experiment [7]. Further, the TGI in [9] and in experiment [10] was more than 100 µM in each case.
Take `COc1cc(C(C)c2cc3c(cc2OCCNC(=O)COc2cc4c(cc2C(C)c2cc(OC)c(OC)c(OC)c2)OCO4)OCO3)cc(OC)c1OC` (stereo unspecified): the TGI in experiment [1], in experiment [2], in experiment [3], in experiment [4], in [5] and in [7] was more than 100 µM each time. The TGI in [8], in experiment [9] and in [10] was more than 100 µM throughout.
As to `O=C(CI)Nc1ccc(O)c2ccccc12`, the GI50 in [1] was 0.647 µM; in [2] it was 2.27 µM; in experiment [4], 0.379 µM; in experiment [5], 1.61 µM; in experiment [6] it was 4.27 µM; in experiment [7], 1.28 µM. For the same molecule, the figures for the GI50 in experiment [8], in [9] and in [10] were 1.93 µM, 0.547 µM and 2.52 µM, respectively. Further, the TGI was found to be 2.01 µM in experiment [1]; 5.14 µM in [2]; 0.956 µM in experiment [4]; 4.79 µM in [5]; 14.8 µM in experiment [6]; 2.68 µM in [7]. In addition, the TGI in [8] worked out at 7.15 µM; in experiment [9], 1.16 µM; in [10], 8.59 µM.
As for `O=C1CNC(=O)c2[nH]cnc2N1`, the TGI in [1], in experiment [3], in experiment [4], in [5], in [6] and in experiment [7] was more than 100 µM throughout. In addition, the TGI in [8], in experiment [9] and in experiment [10] was more than 100 µM in each case.
Regarding `Cc1ccc(S(=O)(=O)c2ccc(C)cc2[N+](=O)[O-])cc1`, the TGI in experiment [1], in experiment [2], in experiment [3], in experiment [4], in [5] and in experiment [6] was more than 100 µM in each case. The TGI in [7], in experiment [9] and in [10] was more than 100 µM throughout.
For the molecule `COc1ccc2c(c1OC)C(C(Cl)(Cl)Cl)N1CCc3cc4c(cc3C1=C2)OCO4` (stereo unspecified), the TGI in experiment [1] is more than 100 µM; in experiment [3] it was 62.2 µM; in experiment [4] it was 20.8 µM; in experiment [5] it was 45.2 µM; in experiment [6] it was 85.9 µM; in experiment [7], more than 100 µM. Moreover, the TGI in [8] was more than 100 µM; in experiment [9] it was 37.3 µM; in experiment [10], more than 100 µM.
